Patent US9067911B2, “Piperidine derivatives” (Hoffmann-La Roche Inc., priority 2009, dated 2015)
Structures can show the parent of a compound that is named as a salt.

What follows are compounds tested against T1, mGlyT-1b (Mus musculus, UniProt P28571) (assay: Glycine uptake inhibition assay (mGlyT-1b)). Settings: [3H]-glycine uptake, Flp-in-CHO cells stably transfected with mGlyT1b cDNA, 20 min preincubation at 22° C.
T1 construct: host or cells: Flp-in-CHO
T1 sequence (P28571 1-651 isoform P28571-2): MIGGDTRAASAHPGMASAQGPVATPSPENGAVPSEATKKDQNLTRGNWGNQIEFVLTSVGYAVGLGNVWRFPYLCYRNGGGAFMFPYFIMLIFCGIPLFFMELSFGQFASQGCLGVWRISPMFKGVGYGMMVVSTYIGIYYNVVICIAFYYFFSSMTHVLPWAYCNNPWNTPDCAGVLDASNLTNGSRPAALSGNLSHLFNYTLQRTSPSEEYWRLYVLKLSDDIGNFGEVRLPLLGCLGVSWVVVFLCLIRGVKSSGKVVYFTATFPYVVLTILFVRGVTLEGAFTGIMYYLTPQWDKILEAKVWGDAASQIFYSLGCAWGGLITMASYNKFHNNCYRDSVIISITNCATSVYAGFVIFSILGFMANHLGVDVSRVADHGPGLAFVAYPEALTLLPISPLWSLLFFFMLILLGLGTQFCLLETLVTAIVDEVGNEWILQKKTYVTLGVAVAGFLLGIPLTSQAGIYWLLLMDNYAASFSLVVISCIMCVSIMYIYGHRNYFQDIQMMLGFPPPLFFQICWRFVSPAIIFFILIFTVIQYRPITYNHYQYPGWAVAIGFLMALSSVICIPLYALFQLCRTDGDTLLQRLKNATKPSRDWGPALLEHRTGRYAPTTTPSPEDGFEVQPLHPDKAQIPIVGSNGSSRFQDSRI
Format: cell-based
Procedure: Nutrient mixture F-12 (Gibco Life-technologies), fetal bovine serum (FBS) 5%, (Gibco life technologies), Penicillin/Streptomycin 1% (Gibco life technologies), Hygromycin 0.6 mg/ml (Gibco life technologies), Glutamine 1 mM Gibco life technologies)
150 mM NaCl, 10 mM Hepes-Tris, pH 7.4, 1 mM CaCl2, 2.5 mM KCl, 2.5 mM MgSO4, 10 mM (+) D-glucose.
Flp-in™-CHO (Invitrogen Cat n° R758-07) cells stably transfected with mGlyT1b cDNA.
Glycine Uptake Inhibition Assay (mGlyT-1b)
On day 1 mammalian cells, (Flp-in™-CHO), transfected with mGlyT-1b cDNA, were plated at the density of 40,000 cells/well in complete F-12 medium, without hygromycin in 96-well culture plates. On day 2, the medium was aspirated and the cells were washed twice with uptake buffer (UB). The cells were then incubated for 20 min at 22° C. with either (i) no potential competitor, (ii) 10 mM non-radioactive glycine, (iii) a concentration of a potential inhibitor. A range of concentrations of the potential inhibitor was used to generate data for calculating the concentration of inhibitor resulting in 50% of the effect (e.g. IC50, the concentration of the competitor inhibiting glycine uptake of 50%). A solution was then immediately added containing [^3H]-glycine 60 nM (11-16 Ci/mmol) and 25 μM non-radioactive glycine. The plates were incubated with gentle shaking and the reaction was stopped by aspiration of the mixture and washing (three times) with ice-cold UB. The cells were lysed with scintillation liquid, shaken 3 hours and the radioactivity in the cells was counted using a scintillation counter.

SMILES	IC50 [µM]
CCc1cc(C(F)(F)F)ccc1C(=O)NC1(c2ccncc2)CCCN(C)C1 (racemic) [Example 72, rac-2-Ethyl-N-(1-methyl-1,4,5,6-tetrahydro-2H-[3,4′]bipyridinyl-3-yl)-4-trifluoromethyl-benzamide hydrochloride]	0.0369
COc1cc(C(F)(F)F)cc(SC)c1C(=O)NC1(c2cccnc2)CCCN(C)C1 (racemic) [Example 73, rac-2-Methoxy-6-methylsulfanyl-N-(1-methyl-1,4,5,6-tetrahydro-2H-[3,3′]bipyridinyl-3-yl)-4-trifluoromethyl-benzamide]	0.0544
CCc1cc(C(F)(F)F)ccc1C(=O)NC1(c2cccnc2)CCCN(C)C1 (racemic) [Example 74, rac-2-Ethyl-N-(1-methyl-1,4,5,6-tetrahydro-2H-[3,3′]bipyridinyl-3-yl)-4-trifluoromethyl-benzamide hydrochloride]	0.123
CO[C@@H]1CN(C)C[C@](NC(=O)c2ccc(C(F)(F)F)cc2C2CC2)(c2ccccc2)C1 (racemic) [Example 76, 2-Cyclopropyl-N-((3RS,5SR)-5-methoxy-1-methyl-3-phenyl-piperidin-3-yl)-4-trifluoromethyl-benzamide]	0.0929
CCc1cc(C(F)(F)F)ccc1C(=O)N[C@@]1(c2ccccc2)C[C@H](OC)CN(C)C1 (racemic) [Example 77, 2-Ethyl-N-((3RS,5SR)-5-methoxy-1-methyl-3-phenyl-piperidin-3-yl)-4-trifluoromethyl-benzamide]	0.0881
COc1cc(C(F)(F)F)cc(OC)c1C(=O)NC1(c2ccccc2)CCCN(C)C1 (racemic) [Example 80, rac-2,6-Dimethoxy-N-(1-methyl-3-phenyl-piperidin-3-yl)-4-trifluoromethyl-benzamide]	0.176
C[C@@H]1CN(C)C[C@](NC(=O)c2ccc(C(F)(F)F)cc2C2CC2)(c2ccccc2)C1 (racemic) [Example 82, 2-Cyclopropyl-N-((3RS,5SR)-1,5-dimethyl-3-phenyl-piperidin-3-yl)-4-trifluoromethyl-benzamide hydrochloride]	0.0253
CN1CC(C)(C)CC(NC(=O)c2ccc(C(F)(F)F)cc2C2CC2)(c2ccccc2)C1 (racemic) [Example 83, rac-2-Cyclopropyl-4-trifluoromethyl-N-(1,5,5-trimethyl-3-phenyl-piperidin-3-yl)-benzamide]	0.03
COc1cc(C(F)(F)F)cc(SC)c1C(=O)NC1(c2ccccc2)CCC(C)(C)N(C)C1 (racemic) [Example 84, rac-2-Methoxy-6-methylsulfanyl-4-trifluoromethyl-N-(1,6,6-trimethyl-3-phenyl-piperidin-3-yl)-benzamide hydrochloride]	0.0173
COCO[C@@H]1CN(C)C[C@](NC(=O)c2c(OC)cc(C(F)(F)F)cc2SC)(c2ccccc2)C1 (racemic) [Example 86, 2-Methoxy-N-((3RS,5SR)-5-methoxymethoxy-1-methyl-3-phenyl-piperidin-3-yl)-6-methylsulfanyl-4-trifluoromethyl-benzamide]	0.0715
COc1cc(C(F)(F)F)cc(SC)c1C(=O)NC1(c2cccc(Br)c2)CCCN(C)C1 (racemic) [Example 87, rac-N-[3-(3-Bromo-phenyl)-1-methyl-piperidin-3-yl]-2-methoxy-6-methylsulfanyl-4-trifluoromethyl-benzamide hydrochloride]	0.0396
COc1cc(C(F)(F)F)cc(SC)c1C(=O)NC1(c2ccc(F)cc2Cl)CCCN(C)C1 (racemic) [Example 88, rac-N-[3-(2-Chloro-4-fluoro-phenyl)-1-methyl-piperidin-3-yl]-2-methoxy-6-methylsulfanyl-4-trifluoromethyl-benzamide]	0.146
COc1cc(C(F)(F)F)cc(SC)c1C(=O)NC1(c2cccc(C(F)(F)F)c2)CCCN(C)C1 (racemic) [Example 89, rac-2-Methoxy-6-methylsulfanyl-N-[1-methyl-3-(3-trifluoromethyl-phenyl)-piperidin-3-yl]-4-trifluoromethyl-benzamide]	0.107
COc1cccc(C2(NC(=O)c3c(OC)cc(C(F)(F)F)cc3SC)CCCN(C)C2)c1 (racemic) [Example 91, rac-2-Methoxy-N-[3-(3-methoxy-phenyl)-1-methyl-piperidin-3-yl]-6-methylsulfanyl-4-trifluoromethyl-benzamide]	0.113
COc1cc(C(F)(F)F)cc(SC)c1C(=O)NC1(c2cccc(F)c2)CCCN(C)C1 (racemic) [Example 93, rac-N-[3-(3-Fluoro-phenyl)-1-methyl-piperidin-3-yl]-2-methoxy-6-methylsulfanyl-4-trifluoromethyl-benzamide formic acid]	0.0479
COc1cc(C(F)(F)F)cc(SC)c1C(=O)NC1(c2ccc(F)c(Cl)c2)CCCN(C)C1 (racemic) [Example 94, rac-N-[3-(3-Chloro-4-fluoro-phenyl)-1-methyl-piperidin-3-yl]-2-methoxy-6-methylsulfanyl-4-trifluoromethyl-benzamide]	0.0596
COc1cc(C(F)(F)F)cc(SC)c1C(=O)NC1(c2ccc(F)c(F)c2)CCCN(C)C1 (racemic) [Example 95, rac-N-[3-(3,4-Difluoro-phenyl)-1-methyl-piperidin-3-yl]-2-methoxy-6-methylsulfanyl-4-trifluoromethyl-benzamide]	0.0515
COc1cc(C(F)(F)F)cc(SC)c1C(=O)NC1(c2cccc(C)c2)CCCN(C)C1 (racemic) [Example 96, rac-2-Methoxy-6-methylsulfanyl-N-(1-methyl-3-m-tolyl-piperidin-3-yl)-4-trifluoromethyl-benzamide]	0.0682
COc1cc(C(F)(F)F)cc(SC)c1C(=O)NC1(c2ccc(F)c(C)c2)CCCN(C)C1 (racemic) [Example 97, rac-N-[3-(4-Fluoro-3-methyl-phenyl)-1-methyl-piperidin-3-yl]-2-methoxy-6-methylsulfanyl-4-trifluoromethyl-benzamide]	0.185
COc1cc(C(F)(F)F)cc(SC)c1C(=O)NC1(c2cc(F)cc(F)c2)CCCN(C)C1 (racemic) [Example 98, rac-N-[3-(3,5-Difluoro-phenyl)-1-methyl-piperidin-3-yl]-2-methoxy-6-methylsulfanyl-4-trifluoromethyl-benzamide]	0.0622
COc1cc(C(F)(F)F)cc(SC)c1C(=O)NC1(c2ccccc2)CN(C)CC(C)(C)C1 (racemic) [Example 99, rac-2-Methoxy-6-methylsulfanyl-4-trifluoromethyl-N-(1,5,5-trimethyl-3-phenyl-piperidin-3-yl)-benzamide hydrochloride]	0.0366
CCc1c(C(=O)NC2(c3ccccc3)CCCN(C)C2)ccc(C(F)(F)F)c1C (racemic) [Example 103, rac-2-Ethyl-3-methyl-N-(1-methyl-3-phenyl-piperidin-3-yl)-4-trifluoromethyl-benzamide formic acid]	0.0773
COc1cc(C(F)(F)F)cc(SC)c1C(=O)NC1(c2ccccc2)CCCN(C(C)(C)C)C1 (racemic) [Example 104, rac-N-(1-tert-Butyl-3-phenyl-piperidin-3-yl)-2-methoxy-6-methylsulfanyl-4-trifluoromethyl-benzamide]	0.173
COc1cc(C(F)(F)F)cc(SC)c1C(=O)NC1(c2ccccc2)CCC2(CC2)N(C)C1 (racemic) [Example 105, rac-2-Methoxy-N-(4-methyl-6-phenyl-4-aza-spiro[2.5]oct-6-yl)-6-methylsulfanyl-4-trifluoromethyl-benzamide]	0.0293
COc1cc(C(F)(F)F)cc(SC)c1C(=O)N[C@@]1(c2ccccc2)C[C@H](O)CN(C)C1 (racemic) [Example 107, N-((3R,5S) or (3S,5R)-5-Hydroxy-1-methyl-3-phenyl-piperidin-3-yl)-2-methoxy-6-methylsulfanyl-4-trifluoromethyl-benzamide hydrochloride]	0.0312
COc1cc(C(F)(F)F)cc(SC)c1C(=O)N[C@]1(c2ccccc2)C[C@@H](C)CN(C)C1 (racemic) [Example 121, N-((3S,5R) or (3R,5S)-1,5-Dimethyl-3-phenyl-piperidin-3-yl)-2-methoxy-6-methylsulfanyl-4-trifluoromethyl-benzamide]	0.0165
